Where “and” joins values, the source holds several entries; their conditions need not be identical. Equal values may be shown once.
Legend:
[1] = test system: U87 cells; assay: MTT cell growth inhibition (GI50), U87; type: cell-based, human; conditions: 3 days
Method: (§1) The drug concentration required to block net cell growth by 50% relative to a control sample is measured as the GI50. The GI50s for several of the compounds of the application were assayed as described.
(§2) MTT assay: U87 and GL261 cells were seeded in 96-well plate (6×10^3 cells in 100 μl of DMEM+10% FBS media per well) and incubated overnight at 37° C. with 5% CO2. All test compounds were diluted (10 point 2-fold serial dilution) in a separate 96-well plate to yield 10× of final concentrations (0.5-256 nM). A volume of 11 μl of 10× dilutions was added to appropriate wells (n=3). To value (reflecting the starting number of cells upon drug treatment) was determined by following steps as described below. After 3 days incubation at 37° C. with 5% CO2, 10 μl of MTT solution (5 mg/ml in PBS) was added to each well and plates were incubated at 37° C. for 3 h to allow MTT to form formazan crystals by reacting with metabolically active cells. 100 μl of 20% SDS was added to each well and plates were incubated overnight at 37° C. with 5% CO2. Afterward, OD570 was measured using microplate reader. The cell growth percentage of control was calculated according to percentage of control=(T−T0)/(C−T0)×100% or OD value of the test well exposure to test drug—OD value at time zero/(OD of the control well without drug treatment−OD value at time zero)×100%. Growth inhibition curves and GI50 were determined using GraphPad Prism 5 software.

[2] = test system: GL261 cells; assay: MTT cell growth inhibition (GI50), GL261; type: cell-based, murine; conditions: 3 days
Method: as §1, §2

[3] = test system: HT-29; assay: Cell growth inhibition (GI50), HT-29; type: cell-based; conditions: Homo sapiens, HT-29, HT-29
Method: as §1

[4] = Pharmacokinetic properties after IV and PO administration; type: in vivo; conditions: for AUCIV (dose-normalized) / t0.5 / C0 / clearance / Vd: IV Administration (5 mg/kg); for F (%) = 100 × AUCpo/AUCIV: PO 20 mg/kg vs IV 5 mg/kg; for AUCPO (dose-normalized) / Cmax: PO Administration (20 mg/kg); for C0 / clearance / Vd / Cmax: in vivo; for Vd: read-out: Vss
[5] = Brain permeability (brain:plasma ratio); type: in vivo; conditions: read-out: Brain:Plasma (B:P) Average; for Kp at 0.25 h: time point 0.25 h; for Kp at 0.5 h: time point 0.5 h; for Kp at 1 h: time point 1 h; for Kp at 2 h: time point 2 h; for Kp at 4 h: time point 4 h; for Kp at 6 h: time point 6 h; for Kp at 8 h: time point 8 h
Method: Brain permeability can be measured by various methods known in the art. For example, brain permeability can be measured by calculating the ratio between the concentration of a compound of the application in the brain and the concentration of the compound in the plasma (i.e., BP ratio). In one aspect, a compound of the application has a B:P ratio of at least 1.0, 1.1, 1.2, 1.3, 1.4, 1.5, 1.6, 1.7, 1.8, 1.9, or 2.0 at 1 hour after administration of the compound to a subject. In one aspect, a compound of the application has a B:P ratio of at least 1.5, 1.6, 1.7, 1.8, 1.9, or 2.0 at 1 hour after administration of the compound to a subject. In one aspect, a compound of the application has a B:P ratio of at least 1.4, 1.5, 1.6, 1.7, 1.8, 1.9, 2.0, 2.1, 2.2, or 2.3 at 2 hours after administration of the compound to a subject. In one aspect, a compound of the application has a B:P ratio of at least 1.9, 2.0, 2.1, 2.2, or 2.3 at 2 hours after administration of the compound to a subject. In one aspect, a compound of the application has a B:P ratio of at least 1.7, 1.8, 1.9, 2.0, 2.1, 2.2, 2.3, 2.4, or 2.5 at 4 hours after administration of the compound to a subject. In one aspect, a compound of the application has a B:P ratio of at least 2.2, 2.3, 2.4, or 2.5 at 4 hours after administration of the compound to a subject.

[6] = test system: GL261 glioblastoma cells injected intra-cranially; assay: GL261 murine model of glioblastoma (intra-cranial), survival; type: in vivo, C57BL/6 mice
Method: The anti-tumor activity of Compound 121, as a single agent, was studied in the GL261 murine model of human glioblastoma. Murine GL261 glioblastoma cells were injected intra-cranially into syngeneic, immune-competent hosts (C57BL/6). In order for oral therapeutics to be effective, it is required that the therapeutic be able to cross the blood-brain barrier in order to achieve sufficient levels in the brain to exert an anti-tumor effect. Survival was the major endpoint for the study. The mice either succumbed to the tumor or were euthanized based on severity of tumor-dependent morbidity. Mice that achieved long-term survival (>80 days) were re-challenged with a sub-cutaneous injection of GL261 cells to assess the development of a durable immune response to GL261. Mice that underwent the re-challenge phase were not treated with Compound 121.
GL261 cells (1×10^5 cells) were implanted into the brain of a C57BL/6 host using stereotactice injection. Compound 121 was dosed orally once per day at 1 mg/kg (N=10) for 45 days beginning 3 days post-tumor cell implantation. Compound Y was dosed orally once per day at 5 mg/kg (N=10) for 45 days beginning 3 days post-tumor implantation. A vehicle was administered to a control group of mice (N=10) per the same schedule.
Mice were monitored for signs of tumor dependent morbidity, including head tilt, hunching, ataxia, and limb weakness. Mice were euthanized when cumulative signs of high tumor burden were evident.

Row | Structure (SMILES) | GI50 [1] | GI50 ([1]; Homo sapiens, U-87 MG, 72 h) | GI50 [2] | GI50 ([2]; Mus musculus, GL261, 72 h) | also measured
1 | C[C@H]1CN(c2ccc(-c3ccc(CC(=O)NCc4cccc(F)c4)nc3)cc2)CCO1 [Compound 100] | 151 nM | 203 nM | 127 nM | 129 nM | –
2 | C[C@@H]1CN(c2ccc(-c3ccc(CC(=O)NCc4cccc(F)c4)nc3)cc2)CCO1 [Compound 101] | – | 96 nM | – | 76 nM | –
3 | C[C@H]1COCCN1c1ccc(-c2ccc(CC(=O)NCc3cccc(F)c3)nc2)cc1 [Compound 102] | 37 nM | 25 nM | 42 nM | 24 nM | –
4 | C[C@@H]1COCCN1c1ccc(-c2ccc(CC(=O)NCc3cccc(F)c3)nc2)cc1 [Compound 103] | – | 146 nM | – | 113 nM | –
5 | Cc1cc(N2CCOC[C@H]2C)ccc1-c1ccc(CC(=O)NCc2ccccc2)nc1 [Compound 105] | 12.2 nM | 10.8 nM | 6.9 nM | 5.7 nM | –
6 | Cc1cc(N2CCOC[C@@H]2C)ccc1-c1ccc(CC(=O)N[C@@H]2CCc3ccccc32)nc1 [Compound 107] | 23.4 nM | 22.1 nM | 28.3 nM | 19.4 nM | –
7 | C[C@H]1COCCN1c1ccc(-c2ccc(CC(=O)NCc3ccccc3)nc2)cc1 [Compound 108] | – | 6.6 nM | – | 6.8 nM | GI50 [3]: 3 nM
8 | Cc1cc(CC(=O)NCc2cccc(F)c2)ncc1-c1ccc(N2CCOC[C@@H]2C)cc1 [Compound 109] | – | > 1020 nM | – | > 1020 nM | –
9 | Cc1cc(CC(=O)NCc2cccc(F)c2)ncc1-c1ccc(N2CCOC[C@H]2C)cc1 [Compound 110] | – | > 1020 nM | – | > 1020 nM | –
10 | Cc1cc(CC(=O)NCc2ccccc2)ncc1-c1ccc(N2CCOC[C@@H]2C)cc1 [Compound 111] | 224 nM | 239 nM | 170 nM | 195 nM | –
11 | Cc1cc(CC(=O)NCc2ccccc2)ncc1-c1ccc(N2CCOC[C@H]2C)cc1 [Compound 112] | 401 nM | 352 nM | 240 nM | 210 nM | –
12 | Cc1nc(CC(=O)NCc2cccc(F)c2)ccc1-c1ccc(N2CCOC[C@@H]2C)cc1 [Compound 113] | – | – | 120 nM and 99 nM | 180 nM | GI50 [3]: 46 nM
13 | Cc1nc(CC(=O)NCc2cccc(F)c2)ccc1-c1ccc(N2CCOC[C@H]2C)cc1 [Compound 114] | – | – | 500 nM | 340 nM | –
14 | Cc1nc(CC(=O)NCc2ccccc2)ccc1-c1ccc(N2CCOC[C@@H]2C)cc1 [Compound 115] | 15 nM and 15.6 nM | 30 nM | – | – | –
15 | Cc1nc(CC(=O)NCc2ccccc2)ccc1-c1ccc(N2CCOC[C@H]2C)cc1 [Compound 116] | 115 nM and 98 nM | 120 nM | 90 nM and 74 nM | 110 nM | –
16 | Cc1cc(N2CCOC[C@@H]2C)ccc1-c1ccc(CC(=O)NCc2ccncc2)nc1 [Compound 117] | – | > 729 nM | 387 nM | 488 nM | –
17 | Cc1cc(N2CCOC[C@@H]2C)ccc1-c1ccc(CC(=O)NCc2cccnc2)nc1 [Compound 118] | – | 621 nM | – | 262 nM | –
18 | Cc1cc(N2CCOC[C@@H]2C)ccc1-c1ccc(CC(=O)NCc2ccccn2)nc1 [Compound 119] | 233 nM and 224 nM | 129 nM | 216 nM and 139 nM | 164 nM | –
19 | O=C(Cc1ccc(-c2ccc(N3CCOCC3)cc2)cn1)NCc1cccc(F)c1 [Compound Y, reference compound] | – | – | – | – | AUCIV (dose-normalized) [4]: 553 kg·ng·h/mL/mg; t0.5 [4]: 0.364 h; F (%) = 100 × AUCpo/AUCIV [4]: 39.3%; AUCPO (dose-normalized) [4]: 217 kg·ng·h/mL/mg; C0 [4]: 4620 ng/mL; clearance [4]: 30.2 mL/min/kg; Vd [4]: 0.962 L/kg; Cmax [4]: 2590 ng/mL; Kp at 0.25 h [5]: 1.56; Kp at 0.5 h [5]: 1.46; Kp at 1 h [5]: 1.33; Kp at 2 h [5]: 0.712; Kp at 4 h [5]: 0.834; Kp at 6 h [5]: 0.633; Kp at 8 h [5]: 0.685; Activity in GL261 model ([6]; dosed once daily at >20 mg/kg): demonstrated activity; Effect on survival ([6]; orally once per day at 5 mg/kg for 45 days): only a marginal, insignificant effect on survival

More lines, main results first:

Row | GI50 [1] | GI50 ([1]; Homo sapiens, U-87 MG, 72 h) | Structure (SMILES) | GI50 [2] | GI50 ([2]; Mus musculus, GL261, 72 h) | also measured
20 | 22.3 nM and 18.4 nM and 17.7 nM and 18.6 nM | 20.2 nM | Cc1cc(N2CCOC[C@@H]2C)ccc1-c1ccc(CC(=O)NCc2ccccc2F)nc1 [Compound 120] | 13.6 nM and 18.9 nM and 15.8 nM and 13.4 nM and 10.7 nM | 17 nM | AUCIV (dose-normalized) [4]: 188 kg·ng·h/mL/mg; t0.5 [4]: 0.663 h; F (%) = 100 × AUCpo/AUCIV [4]: 40.9%; AUCPO (dose-normalized) [4]: 76.8 kg·ng·h/mL/mg; C0 [4]: 1590 ng/mL; clearance [4]: 88.7 mL/min/kg; Vd [4]: 3.63 L/kg; Cmax [4]: 798 ng/mL; Kp at 0.25 h [5]: 1.24; Kp at 0.5 h [5]: 1.39; Kp at 1 h [5]: 1.72; Kp at 2 h [5]: 1.38; Kp at 4 h [5]: 1.04; Kp at 6 h [5]: 0.82; Kp at 8 h [5]: 1.12
21 | 17.3 nM | 24.7 nM | Cc1cc(N2CCOC[C@@H]2C)ccc1-c1ccc(CC(=O)NCc2ccc(C#N)cc2)nc1 [Compound 122] | 18.9 nM | 13.8 nM | –
22 | – | 473 nM | Cc1cc(N2CCOC[C@@H]2C)ccc1-c1ccc(CC(=O)NCc2ccccc2C#N)nc1 [Compound 123] | – | 456 nM | –
23 | – | 860 nM | Cc1cc(N2CCOC[C@@H]2C)ccc1-c1ccc(CC(=O)NCc2cccc(C#N)c2)nc1 [Compound 124] | – | 1030 nM | –
24 | 230 nM | 195 nM | COc1ccccc1CNC(=O)Cc1ccc(-c2ccc(N3CCOC[C@@H]3C)cc2C)cn1 [Compound 125] | 158 nM | 140 nM | –
25 | 46 nM | 41.9 nM | COc1cc(N2CCOC[C@@H]2C)ccc1-c1ccc(CC(=O)NCc2ccccc2)nc1 [Compound 126] | 38.6 nM | 47.9 nM | –
26 | – | 269 nM | COc1cc(N2CCOC[C@@H]2C)ccc1-c1ccc(CC(=O)NCc2ccccc2F)nc1 [Compound 127] | – | 207 nM | –
27 | – | 377 nM | COc1cc(N2CCOC[C@@H]2C)ccc1-c1ccc(CC(=O)NCc2cccc(F)c2)nc1 [Compound 128] | – | 303 nM | –
28 | 38.1 nM | 36 nM | COc1cc(N2CCOC[C@@H]2C)ccc1-c1ccc(CC(=O)NCc2ccc(F)cc2)nc1 [Compound 129] | 30.3 nM | 51.7 nM | –
29 | 135 nM | 104 nM | COc1cc(N2CCOC[C@@H]2C)ccc1-c1ccc(CC(=O)NCc2ccc(C#N)cc2)nc1 [Compound 130] | 107 nM | 111 nM | –

Reference: US20210196724A1, “BIARYL COMPOSITIONS AND METHODS FOR MODULATING A KINASE CASCADE” (Athenex, Inc., priority 2016, published 2021)
